Patent publication US9896441B2 (Lycera Corporation, priority 2014, dated 2018)

Tests used:
RORγ-LBD = biological target: T1, RORγ-LBD (Homo sapiens, UniProt P51449); assay: RORγ-Ligand Binding Domain (LBD) TR-FRET Assay; assay type: biochemical; settings: for TR-FRET Assay Max Response: maximum response;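 on TR-FRET Assay Max Response: 665/615 nm signal ratio set to 100 without ursolic acid or test compound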
T1 construct: made in house; host or cells: SF9 cells (baculovirus); used as diluted lysate
T1 sequence (P51449 269-508 limits assumed): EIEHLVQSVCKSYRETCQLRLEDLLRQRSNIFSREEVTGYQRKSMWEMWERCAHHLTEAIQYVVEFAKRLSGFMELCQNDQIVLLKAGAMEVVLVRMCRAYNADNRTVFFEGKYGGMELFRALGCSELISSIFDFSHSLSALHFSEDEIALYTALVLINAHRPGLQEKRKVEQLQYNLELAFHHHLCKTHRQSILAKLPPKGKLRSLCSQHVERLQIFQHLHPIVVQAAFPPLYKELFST
In short: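 His-tagged RORγ-LBD from SF9 baculovirus lysate, ~3 nM final, in 50 mM Tris pH 7.0, 50 mM KCl, 1 mM EDTA, 0.1 mM DTT, 0.01% BSA. Biotinylated SRC1 LXXLL peptide at 200 nM final with 2 μM ursolic acid; TR-FRET read-out, 1% DMSO final.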

Gal4-RORγ-LBD = biological target: T2, Gal4-RORγ-LBD (Homo sapiens, UniProt P51449); assay: Gal4-RORγ Luciferase Reporter Assay in HEK-293T Cells; assay type: cell-based; settings: HEK-293 cells; for Gal4-RORγ Assay Max Response: maximum response
T2 construct: expressed in transfected cells
T2 sequence (P51449 269-508 limits assumed): T1 sequence (P51449 269-508 limits assumed)
In short: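 HEK-293 cells were co-transfected with Gal4-RORγ-LBD and a Gal4-luciferase reporter, then exposed overnight at 37 °C to compounds with […] ursolic acid present (0.2% DMSO). Luminescence was read with One-Glo after 10 min at RT, untreated signal was set as 100, and Max Response was taken as the upper plateau of a 4-parameter logistic fit.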

[1] = luciferase reporter, with ursolic acid
[2] = luciferase reporter, in presence of ursolic acid

EC50 (RORγ-LBD; RORγ-LBD TR-FRET) [nM] | EC50 (Gal4-RORγ-LBD; [1]) [nM] | Structure (SMILES) | further results
> 10000 | > 10000 | CCOc1nn(CC)cc1S(=O)(=O)N1C[C@H](CCC(=O)O)Oc2ccc(/C=C/c3ccc(Cl)cc3)cc21 [Example 89DB, (S,E)-3-(6-(4-chlorostyryl)-4-((3-ethoxy-1-ethyl-1H-pyrazol-4-yl)sulfonyl)-3,4-dihydro-2H-benzo[b][1,4]oxazin-2-yl)propanoic acid] | –
< 500 | < 500 | CC1CCCC/C1=C\c1ccc2c(c1)N(S(=O)(=O)c1cc(C(F)(F)F)cnc1OCCO)C[C@H](CCC(=O)O)O2 (some centres unmarked) [Example 95R] | –
500 to 5000 | > 10000 | CCOc1nn(CC)cc1S(=O)(=O)N1C[C@H](CCC(=O)OC)Oc2ccc(/C=C/c3cccc(Cl)n3)cc21 [Example 89AB, (S,E)-methyl 3-(6-(2-(6-chloropyridin-2-yl)vinyl)-4-((3ethoxy-1-ethyl-1H-pyrazol-4-yl)sulfonyl)-3,4-dihydro-2H-benzo[b][1,4]oxazin-2-yl)propanoate] | –
< 500 | < 500 | C/C(=C\c1ccc2c(c1)N(S(=O)(=O)c1ccc(F)c(C3CC3)c1)C[C@H](CCC(=O)O)O2)c1c(F)cccc1Cl [Example 86C, (S,E)-3-(6-(2-(2-chloro-6-fluorophenyl)prop-1-en-1-yl)-4-((3-cyclopropyl-4-fluorophenyl)-sulfonyl)-3,4-dihydro-2H-benzo[b][1,4]oxazin-2-yl)-propanoic acid] | –
< 500 | 500 to 5000 | CCc1ccccc1/C=C/c1ccc2c(c1)N(S(=O)(=O)c1cccc(OC(F)F)c1)C[C@H](CCC(=O)OC)O2 [Example 89AX, (S,E)-methyl 3-(4-((3-(difluoromethoxy)phenyl)sulfonyl)-6-(2-ethylstyryl)-3,4-dihydro-2H-benzo[b][1,4]oxazin-2-yl)propanoate] | –
< 500 | 500 to 5000 | CCOc1nn(CC)cc1S(=O)(=O)N1C[C@H](CCC(=O)O)Oc2ccc(/C=C/c3ccccc3OC(F)(F)F)cc21 [Example 89BA, (S,E)-3-(4-((3-ethoxy-1-ethyl-1H-pyrazol-4-yl)sulfonyl)-6-(2-(trifluoromethoxy)styryl)-3,4-dihydro-2H-benzo[b][1,4]oxazin-2-yl)propanoic acid] | –
< 500 | 500 to 5000 | COC(=O)CC[C@H]1CN(S(=O)(=O)c2cccc(C(F)(F)F)c2)c2cc(/C=C/c3cccc(F)c3Cl)ccc2O1 [Example 89BQ, (S,E)-methyl 3-(6-(2-chloro-3-fluorostyryl)-4-((3-(trifluoromethyl)phenyl)sulfonyl)-3,4-dihydro-2H-benzo[b][1,4]oxazin-2-yl)propanoate] | –
< 500 | 500 to 5000 | CCOc1nn(CC)cc1S(=O)(=O)N1C[C@H](CCC(=O)OC)Oc2ccc(/C=C/c3ccccc3OC(F)(F)F)cc21 [Example 89BB, (S,E)-methyl 3-(4-((3-ethoxy-1-ethyl-1H-pyrazol-4-yl)sulfonyl)-6-(2-(trifluoromethoxy)styryl)-3,4-dihydro-2H-benzo[b][1,4]-oxazin-2-yl)propanoate] | –
< 500 | 500 to 5000 | COc1cccc(Cl)c1/C=C/c1ccc2c(c1)N(S(=O)(=O)c1cccc(C(F)(F)F)c1)C[C@H](CCC(=O)O)O2 [Example 89EY, (S,E)-3-(6-(2-chloro-6-methoxystyryl)-4-((3-(trifluoromethyl)phenyl)-sulfonyl)-3,4-dihydro-2H-benzo[b][1,4]oxazin-2-yl)propanoic acid] | –
< 500 | > 10000 | CCOc1nn(CC)cc1S(=O)(=O)N1C[C@H](CCC(=O)O)Oc2ccc(/C=C/c3cccs3)cc21 [Example 89O, (S,E)-3-(4-((3-ethoxy-1-ethyl-1H-pyrazol-4-yl)sulfonyl)-6-(2-(thiophen-2-yl)vinyl)-3,4-dihydro-2H-benzo[b][1,4]oxazin-2-yl)propanoic acid] | –
< 500 | 500 to 5000 | CCOc1nn(CC)cc1S(=O)(=O)N1C[C@H](CCC(=O)O)Oc2ccc(/C=C(\C)c3c(F)cccc3Cl)cc21 [Example 86I, (S,E)-3-(6-(2-(2-chloro-6-fluorophenyl)prop-1-en-1-yl)-4-((3-ethoxy-1-ethyl-1H-pyrazol-4-yl)sulfonyl)-3,4-dihydro-2H-benzo[b][1,4]oxazin-2-yl)propanoic acid] | –

More lines, now with the values behind:

Structure (SMILES) | EC50 (RORγ-LBD; RORγ-LBD TR-FRET) [nM] | EC50 (Gal4-RORγ-LBD; [1]) [nM] | further results
CC/C(C)=C\c1ccc2c(c1)N(S(=O)(=O)c1cccc(C(F)(F)F)c1)C[C@H](CCC(=O)OC)O2 [Example 191C, methyl (S,Z)-3-(6-(2-methylbut-1-en-1-yl)-4-((3-(trifluoromethyl)phenyl)-sulfonyl)-3,4-dihydro-2H-benzo[b][1,4]oxazin-2-yl)propanoate] | – | – | EC50 (RORγ-LBD; RORγ-LBD TR-FRET assay): < 500 nM; TR-FRET Assay Max Response (RORγ-LBD; RORγ-LBD TR-FRET assay): **** (a value greater than 200); EC50 (Gal4-RORγ-LBD; [2]): 500 to 5000 nM; Gal4-RORγ Assay Max Response (Gal4-RORγ-LBD; [2]): ** (a value in the range of greater than 90 to 150)
C/C(=C\c1ccc2c(c1)N(S(=O)(=O)c1cccc(C(F)(F)F)c1)C[C@H](CCC(=O)N1C[C@@H](C)O[C@@H](C)C1)O2)c1c(F)cccc1Cl [Example 127E, 3-((S)-6-((E)-2-(2-chloro-6-fluorophenyl)prop-1-en-1-yl)-4-((3-(trifluoromethyl)phenyl)sulfonyl)-3,4-dihydro-2H-benzo[b][1,4]oxazin-2-yl)-1-((2S,6R)-2,6-dimethylmorpholino)propan-1-one] | – | – | EC50 (RORγ-LBD; RORγ-LBD TR-FRET assay): < 500 nM; TR-FRET Assay Max Response (RORγ-LBD; RORγ-LBD TR-FRET assay): *** (a value in the range of greater than 150 to 200); EC50 (Gal4-RORγ-LBD; [2]): < 500 nM; Gal4-RORγ Assay Max Response (Gal4-RORγ-LBD; [2]): * (a value in the range of 30 to 90)
C/C(=C\c1ccc2c(c1)N(S(=O)(=O)c1cccc(C(F)(F)F)c1)C[C@H](CCC#N)O2)c1c(F)cccc1Cl | – | – | EC50 (RORγ-LBD; with 2 μM ursolic acid (RORγ antagonist), highest test concentration 10 μM): < 500 nM; EC50 (Gal4-RORγ-LBD; ursolic acid present, luciferase readout): < 500 nM
C/C(=C\c1ccc2c(c1)N(S(=O)(=O)c1cccc(C(F)(F)F)c1)C[C@H](CCC(=O)N1CCC(C(=O)[O-])CC1)O2)c1c(F)cccc1Cl.[Na+] [Example 128, Sodium Salt of (S,E)-1-(3-(6-(2-(2-Chloro-6-fluorophenyl)prop-1-en-1-yl)-4-((3-(trifluoromethyl)phenyl)sulfonyl)-3,4-dihydro-2H-benzo[b][1,4]oxazin-2-yl)propanoyl)piperidine-4-carboxylic acid] | – | – | EC50 (RORγ-LBD; RORγ-LBD TR-FRET assay): < 500 nM; TR-FRET Assay Max Response (RORγ-LBD; RORγ-LBD TR-FRET assay): **** (a value greater than 200); EC50 (Gal4-RORγ-LBD; [2]): < 500 nM; Gal4-RORγ Assay Max Response (Gal4-RORγ-LBD; [2]): ** (a value in the range of greater than 90 to 150)
CC/C(=C\c1ccc2c(c1)N(S(=O)(=O)c1cccc(C(F)(F)F)c1)C[C@H](CCC(=O)OC)O2)c1ccccc1Cl [Example 35, Methyl (S,E)-3-(6-(2-(2-chlorophenyl)but-1-en-1-yl)-4-((3-(trifluoromethyl)phenyl)sulfonyl)-3,4-dihydro-2H-benzo[b][1,4]oxazin-2-yl)propanoate] | < 500 | 500 to 5000 | –
C/C(=C\c1ccc2c(c1)N(S(=O)(=O)c1cc(Cl)cnc1OCCO)C[C@H](CCC(=O)O)O2)c1c(F)cccc1Cl [Example 70, (S,E)-3-(4-((5-Chloro-2-(2-hydroxyethoxy)pyridin-3-yl)sulfonyl)-6-(2-(2-chloro-6-fluorophenyl)prop-1-en-1-yl)-3,4-dihydro-2H-benzo[b][1,4]oxazin-2-yl)propanoic acid] | < 500 | < 500 | –
COC(=O)CC[C@H]1CN(S(=O)(=O)c2cncc(C(F)(F)F)c2)c2cc(/C=C(\C)c3c(F)cccc3Cl)ccc2O1 [Example 74, Methyl (S,E)-3-(6-(2-(2-chloro-6-fluorophenyl)prop-1-en-1-yl)-4-((5-(trifluoromethyl)pyridin-3-yl)sulfonyl)-3,4-dihydro-2H-benzo[b][1,4]oxazin-2-yl)propanoate] | < 500 | 500 to 5000 | –
C/C(=C\c1ccc2c(c1)N(S(=O)(=O)c1cccc(C(F)(F)F)c1)[C@H](C)[C@H](NS(C)(=O)=O)C2)c1c(F)cccc1Cl [Example 116J, N-((2R,3R)-7-((E)-2-(2-chloro-6-fluorophenyl)prop-1-en-1-yl)-2-methyl-1-((3-(trifluoromethyl)phenyl)sulfonyl)-1,2,3,4-tetra-hydroquinolin-3-yl)methanesulfonamide] | – | – | EC50 (RORγ-LBD; RORγ-LBD TR-FRET assay): < 500 nM; TR-FRET Assay Max Response (RORγ-LBD; RORγ-LBD TR-FRET assay): *** (a value in the range of greater than 150 to 200); EC50 (Gal4-RORγ-LBD; [2]): 500 to 5000 nM; Gal4-RORγ Assay Max Response (Gal4-RORγ-LBD; [2]): *** (a value in the range of greater than 150 to 200)
COc1cc(S(=O)(=O)N2c3cc(/C=C/c4c(F)cccc4Cl)ccc3O[C@@H](CO)[C@H]2C)ccc1F [Example 136, ((2R,3R)-6-((E)-2-Chloro-6-fluorostyryl)-4-((4-fluoro-3-methoxyphenyl)sulfonyl)-3-methyl-3,4-dihydro-2H-benzo[b][1,4]oxazin-2-yl)methanol] | – | – | EC50 (RORγ-LBD; RORγ-LBD TR-FRET assay): < 500 nM; TR-FRET Assay Max Response (RORγ-LBD; RORγ-LBD TR-FRET assay): **** (a value greater than 200); EC50 (Gal4-RORγ-LBD; [2]): < 500 nM; Gal4-RORγ Assay Max Response (Gal4-RORγ-LBD; [2]): ** (a value in the range of greater than 90 to 150)
